Like-named read-outs stand apart in the source and are kept apart here.
How the values were obtained:
[1] = system: HIV-1 (IIIB) in MT-4 cells; test: microbe, parasite or virus in culture; assay type: cell-based; conditions: HIV-1, read-out: MT4 EC50
[2] = Liver microsomal stability, human liver microsomes; conditions: for half-life at 1 uM: human, liver microsomes
Description: Liver Microsomal Stability Protocol
Test compounds and one control compound (verapamil) were tested in 3 different species in duplicate sets.
Test compound concentration: 1 uM; Protein concentration: 0.5 mg/mL (for dog, rat, and human liver microsomes); Cofactor: NADPH-Regenerating system (NRS) solution; Time-points: 2, 12, 25, 45, and 65 minutes.
Reaction Composition (in Each Incubation Well) Contains:
At an incubation temperature of 37° C., the reaction was started with addition of NADPH Regeneration System, at each time point, 25 uL of the reaction mixture was removed and added to a plate with 225 uL quenching solution (50% MeOH, 25% ACN, 25% H2O, and 200 nM labetalol as internal standard). After plates were vortexed, they were centrifuged for 30 minutes to remove proteins. About 100 μL supernatant was removed to a new plate and diluted with 150 μL water. About 20 μL of the mixture was injected into LC/MS/MS system to monitor the compound's response. In vitro measured t1/2 was used to calculate Clint values.

recombinant human BACE-1 = recombinant human BACE-1 (Homo sapiens (Human), UniProt P56817); test: Beta-secretase (BACE) inhibition assay, fluorogenic enzymatic assay; assay type: biochemical
Sequence of recombinant human BACE-1 (P56817 46-501): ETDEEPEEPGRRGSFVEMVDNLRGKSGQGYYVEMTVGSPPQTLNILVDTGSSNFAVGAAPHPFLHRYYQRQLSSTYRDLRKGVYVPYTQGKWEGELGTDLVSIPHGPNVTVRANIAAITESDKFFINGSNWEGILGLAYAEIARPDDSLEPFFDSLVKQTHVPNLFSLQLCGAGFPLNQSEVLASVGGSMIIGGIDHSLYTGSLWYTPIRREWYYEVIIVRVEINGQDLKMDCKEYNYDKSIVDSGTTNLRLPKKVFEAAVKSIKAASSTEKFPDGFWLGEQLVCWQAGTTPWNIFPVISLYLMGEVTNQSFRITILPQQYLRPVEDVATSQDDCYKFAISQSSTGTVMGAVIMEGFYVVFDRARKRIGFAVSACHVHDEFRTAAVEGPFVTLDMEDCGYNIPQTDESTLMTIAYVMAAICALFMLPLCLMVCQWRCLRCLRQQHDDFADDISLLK
Description: Beta-Secretase (BACE) Inhibition Assay
Inhibitory potency against β-secretase (BACE) was measured using an enzymatic assay with a fluorogenic readout. 50 nM of recombinant human BACE-1 (R&D Systems) and test compound at one of various concentrations were added to a reaction buffer containing 20 mM sodium acetate at pH 4.8, with 0.06% Triton X-100, and 1% DMSO. […] The total volume of the assay solution was 100 μL. […] The slopes of the progress curves were the measure of reaction rates. Reaction rates were plotted as a function of inhibitor concentration, and the data were fit with a four-parameter logistic fit using Graphpad PRISM software to yield IC50 values.

recombinant HIV protease = recombinant HIV protease (Human immunodeficiency virus type 1 group M subtype B (isolate HXB2) (HIV-1), UniProt P04585); test: biochemical; assay type: biochemical
Description: HIV Protease Enzyme Inhibition (PI) Activity
Inhibitor potency against HIV protease was measured using an enzymatic assay with a fluorogenic readout. To a reaction buffer containing 100 mM ammonium acetate at pH 5.3, 100 mM NaCl, 1 mM EDTA, 1 mM DTT, 0.25 mg/mL BSA and 1% DMSO were added 10 nM of recombinant HIV protease (concentration based on protein monomer) and test compound at one of various concentrations. […] The total volume of the assay solution was 100 μL. […] The slopes of the progress curves were the measure of reaction rates. Reaction rates were plotted as a function of inhibitor concentration, and the data were fit with a four-parameter logistic fit using Graphpad PRISM software to yield IC50 values.

[3] = system: single replication cycle recombinant virus containing the protease and reverse transcriptase coding regions of HIV-1 from a patient blood sample; assay type: cell-based
Text: Resistance testing was done by Monogram Biosciences using their proprietary PhenoSense HIV assay.

[4] = Human immunodeficiency virus 1, IIIB, MT4, MT-4 cells
[5] = recombinant HIV protease, fluorogenic enzymatic assay, read-out: HIV PI IC50

| SMILES | EC50 [1, 4] [nM] | half-life at 1 uM [2] [h] | IC50 (recombinant human BACE-1) [nM] | also measured |
| --- | --- | --- | --- | --- |
| CC(C)(C)C[C@]1(c2ccc(-c3cnn(C4CC4)n3)cc2)NC(=N)N([C@H](COC(=O)NC2(C(F)(F)F)CC2)c2ccc(Cl)c(-c3ncnn3C(F)F)c2)C1=O [Compound 146] | 10.3 | ≥ 6.58 | > 100000 | – |
| CC(C)(C[C@]1(c2ccc(-c3cnn(C4CC4)n3)cc2)NC(=N)N([C@H](COC(=O)NC2(C(F)(F)F)CC2)c2ccc(Cl)c(-c3ncnn3C(F)F)c2)C1=O)C(F)(F)F [Compound 152] | 13 | ≥ 6.58 | > 100000 | – |
| CC(C)(C[C@]1(c2ccc(-c3cnn(C4CC4)n3)cc2)NC(=N)N([C@H](COC(=O)NC2(C(F)F)CC2)c2ccc(Cl)c(-c3ncnn3C(F)F)c2)C1=O)C(F)(F)F [Compound 155] | 9.87 | ≥ 6.58 | > 100000 | – |
| CC(C)(C)C[C@]1(c2ccc(-c3cnn(C4CC4)c3)cc2)NC(=N)N([C@H](COC(=O)NC2(C(F)(F)F)CC2)c2ccc(Cl)c(-c3ncnn3C(F)F)c2)C1=O [Compound 164] | – | – | – | IC50 (recombinant HIV protease; [5]): 2.6 nM; EC50 ([1]; MT-4 cells): 16.5 nM |
| CC(C)(F)C[C@]1(c2ccc(-c3cnn(C(F)F)c3)cc2)NC(=N)N([C@H](COC(=O)NC2(C(F)(F)F)CC2)c2ccc(Cl)c(-n3ncnc3C(F)F)c2)C1=O [Compound 194] | 14.8 | ≥ 6.58 | > 100000 | – |
| CC(C)(C)C[C@]1(c2ccc(-c3cnn(C(F)F)c3)cc2F)NC(=N)N([C@H](COC(=O)NC2(C(F)(F)F)CC2)c2ccc(Cl)c(-n3ncnc3C(F)F)c2)C1=O [Compound 195] | 10.5 | ≥ 6.58 | > 100000 | – |
| CC(C)(C)C[C@]1(c2ccc(-c3ccn(C4CC4)n3)cc2)NC(=N)N([C@H](COC(=O)NC2(C(F)(F)F)CC2)c2ccc(Cl)c(-n3ncnc3C(F)F)c2)C1=O [Compound 214] | 11.5 | – | – | IC50 (recombinant HIV protease): 3 nM |
| CC(C)(C)C[C@]1(c2ccc(-c3cnn(C4CC4)n3)cc2)NC(=N)N([C@H](COC(=O)NC2(C(F)(F)F)CC2)c2ccc(Cl)c(-n3ncnc3C(F)F)c2)C1=O [Compound 223] | 13.1 | ≥ 6.58 | > 100000 | – |
| CC(C)(C)C[C@]1(c2ccc(-c3cnn(C(F)F)c3)cc2)NC(=N)N([C@H](COC(=O)NC2(C(F)(F)F)CC2)c2ccc(Cl)c(-n3cncn3)c2)C1=O [Compound 236] | 10.6 | ≥ 6.58 | > 100000 | – |
| CC(C)(C)C[C@]1(c2ccc(-c3cnn(C(F)F)c3)cc2)NC(=N)N([C@H](COC(=O)NC(C)(C)C(F)(F)F)c2ccc(Cl)c(-n3cncn3)c2)C1=O [Compound 242] | 6.83 | ≥ 6.58 | > 100000 | – |
| CC(C)(C[C@]1(c2ccc(-c3cnn(C4CC4)n3)cc2)NC(=N)N([C@H](COC(=O)NC2(C(F)(F)F)CC2)c2ccc(Cl)c(-n3ncnc3C(F)F)c2)C1=O)C(F)(F)F [Compound 270] | 19.1 | ≥ 6.58 | > 100000 | – |
| C[C@H](NC(=O)OC[C@H](c1ccc(Cl)c(-n2ncnc2C(F)F)c1)N1C(=N)N[C@](CC(C)(C)C)(c2ccc(-c3cnn(C(F)F)c3)cc2)C1=O)C(F)(F)F [Compound 311] | 7.01 | ≥ 6.58 | > 100000 | – |
| CC(C)(C)C[C@]1(c2ccc(-c3cnn(C(F)F)c3)cc2)NC(=N)N([C@H](COC(=O)NC2(C(F)(F)F)CC2)c2ccc(F)c(-n3ncnc3C(F)F)c2)C1=O [Compound 380] | – | – | – | IC50 (recombinant HIV protease; [5]): 3.5 nM; EC50 ([1]; MT-4 cells): 29.2 nM; Half-life in human liver microsomes ([2]; human liver microsomes 0.5 mg/mL, 1 uM compound, NADPH-regenerating system, 37° C.): ≥ 6.58 h |
| C[C@H](C(=O)NC[C@H](c1ccc(Cl)c(-n2ncnc2C(F)F)c1)N1C(=N)N[C@](CC(C)(C)C(F)(F)F)(c2ccc(-c3cnn(C4CC4)n3)cc2)C1=O)C(F)(F)F [Compound 389] | 12.2 | ≥ 6.58 | > 100000 | – |
| COC(=O)N[C@H](C(=O)N[C@@H](Cc1ccccc1)[C@@H](O)CN(Cc1ccc(-c2ccccn2)cc1)NC(=O)[C@@H](NC(=O)OC)C(C)(C)C)C(C)(C)C [atazanavir, methyl N-[(2S)-1-[2-[(2S,3S)-2-hydroxy-3-[[(2S)-2-(methoxycarbonylamino)-3,3-dimethylbutanoyl]amino]-4-phenylbutyl]-2-[(4-pyridin-2-ylphenyl)methyl]hydrazinyl]-3,3-dimethyl-1-oxobutan-2-yl]carbamate] | – | 0.433 to 1.78 | – | Fold change in EC50 ([3]; Resistance mutations D30N L33F N88D L90M): 5.27; Fold change in EC50 ([3]; Resistance mutations L10F M46I I47V I50V I54V G73S I84V L90M): 30.0; Fold change in EC50 ([3]; Resistance mutations L10F M46L I54V V82A I84V): >101; Fold change in EC50 ([3]; Resistance mutations L10F V32I M46I I47V I50V I54L I84V): 5.67; Fold change in EC50 ([3]; Resistance mutations L10I L33F G48V I50L I54V/I V82A): 87.0; Fold change in EC50 ([3]; Resistance mutations L10I L33F/L G48V G73S V82A): >101; Fold change in EC50 ([3]; Resistance mutations L10I M46I I50V): 1.99; Fold change in EC50 ([3]; Resistance mutations L10I V32I L33F M46L I54L I84V L89V): 97.0; Fold change in EC50 ([3]; Resistance mutations L10I V32I M46I I47V G48V I54M V82T L90M): 11.0; Fold change in EC50 ([3]; Resistance mutations L10I V32I M46I I47V I50V I54L L90M): 36.0; Fold change in EC50 ([3]; Resistance mutations L10V/L M46I I50L V82A): >101; Fold change in EC50 ([3]; Resistance mutations L33F M46I I50V L76V): 1.91 |

Source: patent US10774053B2, “HIV protease inhibitors” (Gilead Sciences, Inc., priority 2017, dated 2020)
